Data: patent publication US11939334B2, “Substituted pyrimido[4,5-b][1,4]diazepines as PLK1 degradation inducers” (UPPTHERA, INC., priority 2021, dated 2024)
pIC50: −log10 of the molar value.

Experiments:
H526 cell line = experiment: Cell viability assay for H526 cell line; format: cell-based; details: Homo sapiens, NCI-H526, 120 h; H526 cells, 5 days, EZ-Cytox, 0.46-3000 nM
How it was run: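 NCI-H526 cells exposed to compounds for 5 days in a CO2 incubator; viability read as absorbance at 450 nm after 3 min plate shaking; IC50 derived from treatment response.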

PLK1 = molecular target: T1, PLK1 (Homo sapiens, UniProt P53350); experiment: Luciferase assay for PLK1 in HeLa LgBit (Plk1-HiBit KI) cell line; format: cell-based; details: 300 nM compound, luminescence after 9 hours
T1 construct: endogenous in cells; host or cells: HeLa cells stably expressing LgBit, with CRISPR/Cas9 knock-in of HiBit at the endogenous PLK1 locus
T1 sequence (P53350 whole entry): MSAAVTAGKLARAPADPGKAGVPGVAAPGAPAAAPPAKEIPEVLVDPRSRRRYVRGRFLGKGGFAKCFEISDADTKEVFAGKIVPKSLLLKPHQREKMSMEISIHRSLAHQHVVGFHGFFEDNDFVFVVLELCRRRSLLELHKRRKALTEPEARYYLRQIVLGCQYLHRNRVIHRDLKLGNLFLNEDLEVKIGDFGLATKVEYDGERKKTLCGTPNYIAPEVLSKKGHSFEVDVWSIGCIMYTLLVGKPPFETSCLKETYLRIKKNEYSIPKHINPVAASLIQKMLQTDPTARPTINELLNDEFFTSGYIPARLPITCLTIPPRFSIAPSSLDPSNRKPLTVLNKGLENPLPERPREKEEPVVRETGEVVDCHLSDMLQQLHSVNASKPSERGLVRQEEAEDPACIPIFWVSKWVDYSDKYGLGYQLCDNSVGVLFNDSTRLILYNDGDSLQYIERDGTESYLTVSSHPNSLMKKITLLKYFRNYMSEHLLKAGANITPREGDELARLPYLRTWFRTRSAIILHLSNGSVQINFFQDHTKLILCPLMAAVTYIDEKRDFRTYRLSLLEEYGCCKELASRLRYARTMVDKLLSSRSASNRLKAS
How it was run: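 HeLa LgBit cells with endogenous Plk1 C-terminally HiBiT-tagged by CRISPR knock-in were synchronized by 2 mM thymidine block for 24 h, then released and seeded. After 18 h, Endurazine was added and compounds were dosed at 300 nM. Luminescence was tracked in real time; activity is the ratio to DMSO.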

MRC-5 cell line = experiment: Cell viability assay for MRC-5 cell line; details: for IC50: Homo sapiens, MRC5, 120 h, read-out: Activity: IC50 value (nM) to MRC-5 cell line
Description: Cell Viability Assay for MRC-5 Cell Line
(1) Culture of MRC-5 Cell Line
The MRC-5 cell line was purchased from Korea Cell Line Bank (KCLB), Seoul, Korea. Passage of cultured cells was maintained within P15.
(2) Treatment of Compounds of the Present Invention
6×10^3 cells were seeded for each well of a 96-well plate (SPL), and the cells were cultured in total volume of 150 μL.
Each well was mixed with a medium and treated, and the volume was set to 50 μL, so that the total volume of each well was 200 μL. Then, it was cultured in 37° C.
The following compounds were used as comparative examples, and the cell viability assay was performed in the same manner as in the compounds of Examples.
(3) Cytotoxicity Experiment
After treating EZ-Cytox (DOGEN, Cat. NO. EZ-3000, Lot. No. DLS2112) 20 μL in each well of completely cultured plate, it was cultured in 37° C. CO2 incubator for 4 hours. […] The data were converted into graphs using the Prism (ver. 9) program.

Structure (SMILES) | pIC50 (H526 cell line) | Activity: ratio of the luminescence value of each Exemplary Compound treatment group to DMSO treatment group (PLK1) | IC50 (MRC-5 cell line) | cytotoxicity in normal cell line (in words) (MRC-5 cell line; MRC-5 cell line)
COc1cc(C(=O)NC2CC3(CCN(CC4CCN(c5ccc(C6CCC(=O)NC6=O)cc5F)CC4)CC3)C2)c(F)cc1Nc1ncc2c(n1)N(C(C)C)CC(F)(F)C(=O)N2C (stereo not shown) [Compound 14, 4-((7,7-difluoro-9-isopropyl-5-methyl-6-oxo-6,7,8,9-tetrahydro-5H-pyrimido[4,5-b][1,4]diazepin-2-yl)amino)-N-(7-((1-(4-(2,6-dioxopiperidin-3-yl)-2-fluorophenyl)piperidin-4-yl)methyl)-7-azaspiro[3.5]nonan-2-yl)-2-fluoro-5-methoxybenzamide] | > 7.30 | ++ (++ <0.6) | 14700 nM | 
COc1cc(C(=O)NC2CC3(CCN(CC4CCN(c5ccc(C6CCC(=O)NC6=O)cc5)CC4)CC3)C2)ccc1Nc1ncc2c(n1)N(C(C)C)CC(F)(F)C(=O)N2C (stereo not shown) [Compound 19, 4-((7,7-difluoro-9-isopropyl-5-methyl-6-oxo-6,7,8,9-tetrahydro-5H-pyrimido[4,5-b][1,4]diazepin-2-yl)amino)-N-(7-((1-(4-(2,6-dioxopiperidin-3-yl)phenyl)piperidin-4-yl)methyl)-7-azaspiro[3.5]nonan-2-yl)-3-methoxybenzamide] | > 7.52 | ++ (++ <0.6) | 13100 nM | 
CC[C@@H]1C(=O)N(C)c2cnc(Nc3ccc(C(=O)NCCOCCOCCNc4cccc5c4C(=O)N(C4CCC(=O)NC4=O)C5=O)cc3OC)nc2N1C1CCCC1 (stereo partly shown) [Comparative Compound 1, reference compound] |  |  |  | high level of cytotoxicity in normal cell line
Cc1cc(C(=O)NC2CC3(CCN(CC4CCN(c5ccc(C6CCC(=O)NC6=O)cc5F)CC4)CC3)C2)c(F)cc1Nc1ncc2c(n1)N(C(C)C)CC(F)(F)C(=O)N2C (stereo not shown) [Compound 21, 4-((7,7-difluoro-9-isopropyl-5-methyl-6-oxo-6,7,8,9-tetrahydro-5H-pyrimido[4,5-b][1,4]diazepin-2-yl)amino)-N-(7-((1-(4-(2,6-dioxopiperidin-3-yl)-2-fluorophenyl)piperidin-4-yl)methyl)-7-azaspiro[3.5]nonan-2-yl)-2-fluoro-5-methylbenzamide] | > 7.30 | ++ (++ <0.6) | 12600 nM | 
COc1cc(C(=O)NC2CCN(CC3CN(c4ccc(C5CCC(=O)NC5=O)cc4F)C3)CC2)ccc1Nc1ncc2c(n1)N(C(C)C)CC(F)(F)C(=O)N2C (stereo not shown) [Compound 12, 4-((7,7-difluoro-9-isopropyl-5-methyl-6-oxo-6,7,8,9-tetrahydro-5H-pyrimido[4,5-b][1,4]diazepin-2-yl)amino)-N-(1-((1-(4-(2,6-dioxopiperidin-3-yl)-2-fluorophenyl)azetidin-3-yl)methyl)piperidin-4-yl)-3-methoxybenzamide] | > 7.30 | ++ (++ <0.6) | 24600 nM | 
COc1cc(C(=O)NC2CCC(N(C)CC3CCN(c4ccc(C5CCC(=O)NC5=O)cc4F)CC3)CC2)ccc1Nc1ncc2c(n1)N(C(C)C)CC(F)(F)C(=O)N2C (stereo not shown) [Compound 7, 4-((7,7-difluoro-9-isopropyl-5-methyl-6-oxo-6,7,8,9-tetrahydro-5H-pyrimido[4,5-b][1,4]diazepin-2-yl)amino)-N-((1r,4r)-4-(((1-(4-(2,6-dioxopiperidin-3-yl)-2-fluorophenyl)piperidin-4-yl)methyl)(methyl)amino)cyclohexyl)-3-methoxybenzamide] | > 7.52 | +++ (+++: <0.3) | 13000 nM | 
COc1cc(C(=O)NC2CC(N(C)CCC3CCN(c4cccc(C5CCC(=O)NC5=O)c4)CC3)C2)ccc1Nc1ncc2c(n1)N(C(C)C)CC1(CC1)C(=O)N2C (stereo not shown) [Compound 6, N-(3-((2-(1-(3-(2,6-dioxopiperidin-3-yl)phenyl)piperidin-4-yl)ethyl)(methyl)amino)cyclobutyl)-4-((9′-isopropyl-5′-methyl-6′-oxo-5′,6′,8′,9′-tetrahydrospiro[cyclopropane-1,7′-pyrimido[4,5-b][1,4]diazepin]-2′-yl)amino)-3-methoxybenzamide] | > 6.40 | ++ (++ <0.6) | 12300 nM | 
COc1cc(C(=O)NC2CCN(C3CC4(CCN(c5ccc(C6CCC(=O)NC6=O)cc5F)CC4)C3)CC2)ccc1Nc1ncc2c(n1)N(C(C)C)CC(F)(F)C(=O)N2C (stereo not shown) [Compound 39, 4-((7,7-difluoro-9-isopropyl-5-methyl-6-oxo-6,7,8,9-tetrahydro-5H-pyrimido[4,5-b][1,4]diazepin-2-yl)amino)-N-(1-(7-(4-(2,6-dioxopiperidin-3-yl)-2-fluorophenyl)-7-azaspiro[3.5]nonan-2-yl)piperidin-4-yl)-3-methoxybenzamide] | > 7.30 | ++ (++ <0.6) | 5800 nM | 
COc1cc(C(=O)N[C@H]2CC[C@H](N(C)CCN3CCN(c4ccc(C5CCC(=O)NC5=O)cc4F)CC3)CC2)ccc1Nc1ncc2c(n1)N(C(C)C)CC(F)(F)C(=O)N2C (stereo partly shown) [Compound 9, 4-((7,7-difluoro-9-isopropyl-5-methyl-6-oxo-6,7,8,9-tetrahydro-5H-pyrimido[4,5-b][1,4]diazepin-2-yl)amino)-N-((1r,4r)-4-((2-(4-(4-(2,6-dioxopiperidin-3-yl)-2-fluorophenyl)piperazin-1-yl)ethyl)(methyl)amino)cyclohexyl)-3-methoxybenzamide] | > 7.30 | ++ (++ <0.6) | 16600 nM | 
COc1cc(C(=O)N[C@H]2CC[C@H](N(C)CCN3CCN(c4c(F)cc(C5CCC(=O)NC5=O)cc4F)CC3)CC2)ccc1Nc1ncc2c(n1)N(C(C)C)CC(F)(F)C(=O)N2C (stereo partly shown) [Compound 10, 4-((7,7-difluoro-9-isopropyl-5-methyl-6-oxo-6,7,8,9-tetrahydro-5H-pyrimido[4,5-b][1,4]diazepin-2-yl)amino)-N-((1r,4r)-4-((2-(4-(4-(2,6-dioxopiperidin-3-yl)-2,6-difluorophenyl)piperazin-1-yl)ethyl)(methyl)amino)cyclohexyl)-3-methoxybenzamide] | > 7.30 | ++ (++ <0.6) | 15600 nM | 
COc1cc(C(=O)NC2CC3(CCN(CC4CCN(c5c(F)cc(C6CCC(=O)NC6=O)cc5F)CC4)CC3)C2)ccc1Nc1ncc2c(n1)N(C(C)C)CC(F)(F)C(=O)N2C (stereo not shown) [Compound 15, 4-((7,7-difluoro-9-isopropyl-5-methyl-6-oxo-6,7,8,9-tetrahydro-5H-pyrimido[4,5-b][1,4]diazepin-2-yl)amino)-N-(7-((1-(4-(2,6-dioxopiperidin-3-yl)-2,6-difluorophenyl)piperidin-4-yl)methyl)-7-azaspiro[3.5]nonan-2-yl)-3-methoxybenzamide] | > 7.52 | ++ (++ <0.6) | 17700 nM | 
